Reference: patent publication US20260021180A1, “IMPROVING ADOPTIVE CELL TRANSFER THERAPY (ACT) TREATMENT” (YISSUM RESEARCH DEVELOPMENT COMPANY OF THE HEBREW …, priority 2022, published 2026)

What was measured:
[1] = test system: HEK-293T cells; assay: Extracellular acidification rate (ECAR), Seahorse analysis, HEK-293T cells; type: cell-based, human; conditions: trehalose 5 mM, oligomycin 1 μM, 2DG 50 mM, added in sequence
Protocol: FIG. 3: Treh and Tret1 co-expression allows utilization of Trehalose as a carbon source for glycolysis. Line graph of the Extra Cellular Acidification Rate (ECAR) of Tret1-3×Flag and Treh-GFP expressing (transduced with retrovirus expressing both Tret1-3×Flag and Treh-GFP) or wild-type HEK-293T cells. Trehalose was added at 5 mM, Oligomycin at 1 μM and 2DG (2-Deoxy-D-glucose) at 50 mM.
To directly examine this notion, whether trehalose restores glycolysis of Treh/Tret1 expressing cells was tested. For this purpose, the extracellular acidification rate (ECAR), as a proxy for lactate secretion, of Treh/Tret1 or wild-type cells, was analyzed using Seahorse analysis.

[2] = test system: HEK-293T cells; assay: Cell survival by PI staining (flow cytometry) of transfected HEK-293T cells in glucose-free, trehalose-supplemented medium; type: cell-based, human; conditions: four days
Protocol: (§1) FIGS. 2A-2C: Treh and Tret1 co-expression rescues the proliferation and survival of HEK-293T cells in glucose-free, trehalose-supplemented medium. (2A) Histograms of cell survival as measured by PI staining using a flow cytometer. HEK-293T cells were transfected with either Tret1-3×Flag expression plasmid, HA-Treh expression plasmid or both together. 48 h post-transfection medium was replaced to a glucose-free medium supplemented with the indicated trehalose concentrations. Four days later flow analysis was performed. (2B) Histograms of cell survival as measured by PI staining using a flow cytometer. HEK-293T cells were co-transfected with Tret1-3×Flag and HA-Treh expression plasmids or pCDNA3.1 (empty vector). 48 h post-transfection medium was replaced with glucose-free medium supplemented with the 25 mM trehalose. Four days later, flow analysis was performed. (2C) Bar graph of MMT analysis. HEK-293T cells were transfected with pCDNA3.1 (empty vector), Tret1-3×Flag or HA-Treh expression plasmids or both plasmids together. 48 h post-transfection medium was replaced with glucose-free medium supplemented with 25 mM trehalose. Ten days later, cell survival was measured by MTT assay.
(§2) To test the function of delivered Treh and Tret1 genes in HEK-293T cells the survival of Treh/Tret1 expressing cells was tested in the absence or presence of various trehalose concentrations in glucose-free media.

[3] = test system: human CD8 T cells; assay: Metabolic isotope tracing (13C6-glucose vs 13C12-trehalose, LC-MS) in DmTret1-1B/Treh-expressing human CD8 T cells; type: cell-based; conditions: 24 h with 13C12-Trehalose vs 13C6-Glucose; glycolysis, pentose phosphate pathway, TCA cycle
Protocol: FIGS. 6A-6I: Human primary T cells utilize trehalose for glycolysis, proliferation and cytokine production. Human primary PBMCs were activated with anti-CD3 and anti-CD28 for 48 hours. Then, they were retrovirally transduced with Treh1 and a trehalose transporter. (6A) FACS analysis of the T cells transduced with Treh1-GFP and Dm-Tret1-1B-mKate2. CD8 T cells were gated, and expression was analyzed 48 h after transduction. (6B) FACS analysis of the T cells transduced with Treh1-GFP and Dm-Tret1-1A-mKate2. CD8 T cells were gated, and expression was analyzed 48 h after transduction. (6C) Normalized ECAR measured by Seahorse analysis following trehalose or glucose supplementation and oligomycin and 2DG injections of Treh1 or DmTret1-1B/Treh1-expressing CD8 T cells. (6D-G): DmTret1-1B/Treh-expressing human CD8 T cells were incubated for 24 h with 13C6-Glucose or 13C12-Trehalose. Then cell extracts and media were subjected to metabolic analysis using LC-MS. (6D) Levels of lactate isotopologues in the medium of the cells. (6E-G) Isotopologue distributions in the cell fraction of detected key metabolites generated during (6E) glycolysis, (6F) the TCA cycle and (6G) the phosphate pentose pathway. […] Cells were counted every 3-4 days. […] Media was collected and INF-γ concentration was measured by ELISA at optical density of 605 (O.D.605). […]

[4] = test system: HEK-293T cells; assay: MTT assay of transfected HEK-293T cells in glucose-free medium supplemented with trehalose; type: cell-based, human
Protocol: as §1, §2

OC[C@H]1O[C@H](O[C@H]2O[C@H](CO)[C@@H](O)[C@H](O)[C@H]2O)[C@H](O)[C@@H](O)[C@@H]1O [trehalose]
ECAR of HEK293T cells expressing Treh/Tret1 following addition [1]: significant increase | rescue of survival of Treh/Tret1 expressing cells ([2]; HEK-293T co-transfected with Tret1-3×Flag and HA-Treh, glucose-free medium + 25 mM trehalose): could rescue the survival | rescue of survival of empty vector transfected cells ([2]; HEK-293T with pCDNA3.1 empty vector, glucose-free medium + 25 mM trehalose): not | survival of Treh/Tret1 expressing cells ([2]; HEK-293T, glucose-free media, 2 mM trehalose, PI staining): substantial rescue | survival of Treh/Tret1 expressing cells versus trehalose concentration ([2]; HEK-293T, glucose-free media, various trehalose concentrations): increased survival of the cells in correlation with the trehalose concentration | metabolic pathways into which the sugar integrates [3]: integrates into the same metabolic pathways as glucose

CC[C@H]1/C=C/C=C/C[C@@H](C)[C@H](O)[C@@](C)(O)C(=O)[C@@H](C)[C@H](O)[C@@H](C)C(=O)[C@@H](C)[C@H](O)[C@@H](C)/C=C/C(=O)O[C@@H]2[C@H](C)[C@H](CC1)O[C@]1(CC[C@H](C)[C@H](C[C@@H](C)O)O1)[C@H]2C [oligomycin, reference compound]
ECAR of HEK293T cells expressing Treh/Tret1 following addition [1]: did not lead to an elevation in ECAR

O=CC[C@@H](O)[C@H](O)[C@H](O)CO [2-Deoxy-D-glucose, reference compound]
ECAR of HEK293T cells expressing Treh/Tret1 following addition [1]: significantly decreased

B1: Tret1: Drosophila melanogaster trehalose transporter 1, long isoform A, 857 amino acids (SEQ ID NO: 5), expressed in human cells (protein)
chain: MSGRDNRGAGGGGGGHQPLSNAMGKLKEKLTRVGDELGYHRVESNLSTSNTATSLDTILPEDPFLFPQVSPQRHPQNTVRTQRLLEDEPPLSFRPLLEDDDINEPPTQQQQRTPLRASGSLELTPLPPPPTSLEIREHRDRQQRGAQGDELQRSKQSLKGSRVSFERRDTGNSNTNSNKAAESSDEDSFEEKRTGFQQQKATSVDHKGILKDLKHILANDNRRQFQAKKHVSLDVKGTRFLQDLLKESSSEEEFHKTRREFQGRKHQSLDPRVTFKLDKVLQGSSTDSDEEGEDAEHKRLIHRPKDITKPVIIDLKDLESESDEDFLTSRQHFQQQRSISTDSRKSRRLYEMDEMDNKRGENIRHAVPFVRQITEDGKPKLEVYRPTTNPIYIWTQVLAALSVSLGSLVVGFVSAYTSPALVSMTDRNITSFEVTQDAGSWVGGIMPLAGLAGGIAGGPLIEYLGRRNTILATAVPFIVSSLLIACAVNVAMVLCGRFLAGFCVGIASLSLPVYLGETVQPEVRGTLGLLPTAFGNIGILLCFVAGSFMNWSMLAFLGAALPVPFLILMFLIPETPRWFVGRGLEERARKALKWLRGKEADVEPELKGLMRSQADADRQASRNTMLELLKLNNLKPLSISLGLMFFQQFSGINAVIFYTVQIFKDAGSTIDGNLCTIIVGIVNFLATFIGIVLIDRAGRKILLYVSDIAMVLTLFVLGGFFYCKTYGPDVSHLGWLPLTCFVIYILGFSLGFGPIPWLMMGEILPAKIRGSAASVATAFNWFCTFVVTKTFQDLTVAMGAHGAFWLFGAICFVGLFFVIIYVPETQGKTLEDIERKMMGRVRRMSSVANIKPLSFNM
modifications: 3xFlag tag; Drosophila melanogaster
survival of mammalian cells with trehalose as the only sugar source (summary statement) [4]: greatly improved survival
